From patent EP3492066A1, “COSMETIC PREPARATIONS HAVING A CALMING EFFECT” (Beiersdorf AG, priority 2010, dated 2012)

Legend:
Probandinnen [1] = assay: Short stress test (unpleasant pictures, loud drum rhythm) with Self-Assessment Manikin (SAM) rating of nervousness; type: in vivo, Menschen; settings: im Mittel, compared with Placebo-behandelte Probandinnen
Method: Zur Ergänzung der zuvor ermittelten Daten wurde mit den Probandinnen ein kurzer Stresstest durchgeführt, bei dem sie nach einer Anfangsentspannung für 1 min einer schnellen Folge von unangenehmen Bildern (Spinnen, Feuer, etc.) auf einem Fernsehbildschirm ausgesetzt wurden. Die visuellen Reize wurden von einem lauten Trommelrhythmus begleitet. Vor und nach dem Stresstest wurden die Probandinnen gebeten, mit Hilfe eines Self-Assessment Manikins (SAM), [formula] ihre eigene Nervosität zu bewerten.
Beispielhaft sind in Abbildung 2 die Werte des SAM-Fragebogens für Nervosität für 2,6-Dimethyl-7-octen-2-ol und Tetrahydro-6-pentyl-2H-pyran-2-one dargestellt. Abbildung 2 zeigt die Angaben der Probandinnen zu ihrer Nervosität vor und nach dem Stresstest als Differenz (nachher minus vorher).

Probandinnen [2] = assay: Olfactometer test with psychophysiological measurement (blood volume pulse amplitude, heart rate) versus placebo; type: in vivo, Menschen; settings: for Blutvolumenpuls Amplitude (Abbildung 1): 0,025% Tetrahydro-6-pentyl-2H-pyran-2-one (N=9), 0,075% 2,6-Dimethyl-7-octen-2-ol (N=10), gegenüber Placebokontrolle Propylenglycol (N=10); for Blutvolumenpuls Amplitude: gegenüber der Placebokontrolle (Propylenglykol), 5 min fragrance by olfactometer; for Änderung der Herzrate: normalised
Source text: Es wurde in weiteren Tests die beruhigende Wirkung der Duftstoffe 6-Methyl-5-Hepten-2-one, Octan-2-one, Heptan-2-one, Nonan-2-one, 5-hexyldihydro-5-methyl-2(3H)-furanone, Tetrahydro-6-pentyl-2H-pyran-2-one, Octanal und 2,6-Dimethyl-7-octen-2-ol auf den Menschen untersucht. Dazu wurde ein Testdesign gewählt, bei dem mit Hilfe eines Olfaktometers (Burghart) kosmetisch einsetzbare und kommerziell erhältliche Duftstoffe an die Nase des Probanden gebracht wurden. Die Duftstoffe wurden in Propylenglykol (Caelo) gelöst. Als Placebokontrolle wurde entsprechend ebenfalls Propylenglykol eingesetzt
Die Probandinnen wurden in einer bequemen, leicht nach hinten gelehnten Haltung auf einem Sessel platziert. Das Ende des Olfaktometerschlauches wurde im Abstand von etwa 10 cm vor der Nase des Probanden platziert und mit Hilfe eines Stativs fixiert. Der Versuchsaufbau (Nexus, Olfaktometer) wurde von den Probandinnen mit Hilfe einer spanischen Wand abgeschirmt, um die Teilnehmerinnen nicht durch das Messgeschehen abzulenken. Die Messungen fanden in einem hellen, gut gelüfteten, auf 21°C temperierten Raum statt.
An den Untersuchungen nahmen Probandinnen im Alter von 20 bis 40 Jahren teil. Das Durchschnittsalter betrug 31 Jahre. Die Probandinnen besaßen einen BMI zwischen 19 und 25. Die Probandinnen wurden gebeten, einen Tag vor Studienbeginn auf Parfum und Body Lotion zu verzichten. Am Messtag selbst durften die Teilnehmerinnen weder Parfum, noch parfümierte Deoprodukte, Body Lotions, Gesichtscreme, Handcreme und Haarspray benutzen. Sie mussten auf Kaffee, Schwarztee, Fruchtsäfte und Zigaretten verzichten und durften 30 min vor Testbeginn nichts mehr essen und ausschließlich Wasser trinken.
Die Einstellungen am Olfaktometer sahen einen Luftstrom von 4 L/min vor. Die externe Druckluft betrug 2 bar. Die Probandinnen wurden mit den entsprechenden Messelektroden bestückt und akklimatisierten zunächst für 1 min. Diese Zeit wurde gleichzeitig genutzt, um sicherzustellen, dass sich die Elektroden zur Bestimmung psychophysiologischer Parameter in einem schwankungsfreien und messbereiten Zustand befinden. Alle Probandinnen erhielten im Anschluss für 5 min Kontrollluft ohne Duft. Während dieser Zeit sollten alle Probandinnen einen emotional neutralen Zustand erreichen. Anschließend erhielten die Probandinnen für 5 min einen Duftstoff, der so niedrig konzentriert war, dass er nicht unangenehm oder gar stechend empfunden wurde. Alle Duftstoffe wurden in Propylenglykol gelöst. Als Placebokontrolle diente ebenfalls Propylenglykol. Während der gesamten 10 min wurden die psychophysiologischen Messparameter dermale Aktivität, Herzrate und Blutvolumenpuls mit Hilfe des Messgeräts NeXus und der Software Biotrace (Mind Media B.V.) erfasst. Die Differenz zwischen maximalem und minimalem Blutvolumen innerhalb eines Herzzyklus nennt man Blutvolumenpuls Amplitude. Dieser Wert sinkt bei psychischer Belastung ab. Umgekehrt kann ein Anstieg als Entspannungsreaktion interpretiert werden.
Um eine gute Vergleichbarkeit der Messdaten der verschiedenen Testgruppen gewährleisten zu können, wurden die Rohdaten der Messung normiert. Dafür wurde der Mittelwert der BVP Amplitude 1 min vor Duftapplikation von allen anderen Messwerten abgezogen. Die Summe der Differenzen ergibt die Änderung der BVP Amplitude in µV.

Row | SMILES | Stress-vermittelte Änderung der Nervosität (SAM) (Probandinnen [1]) | Blutvolumenpuls Amplitude (Probandinnen [2]) | other results
1 | C=CC(C)CCCC(C)(C)O (stereo not shown) [2,6-Dimethyl-7-octen-2-ol] | geringeren Stress-vermittelten Änderung der Nervosität | Anstieg | Blutvolumenpuls Amplitude (Abbildung 1) (Probandinnen [2]): Anstieg
2 | CCCCCCC1(C)CCC(=O)O1 (stereo not shown) [5-hexyldihydro-5-methyl-2(3H)-furanone] | geringeren Stress-vermittelten Änderung der Nervosität | Beruhigungs- bzw. Entspannungsreaktion | –
3 | CC(=O)CCC=C(C)C [6-Methyl-5-Hepten-2-one] | geringeren Stress-vermittelten Änderung der Nervosität | Beruhigungs- bzw. Entspannungsreaktion | –
4 | CCCCCC(C)=O [Heptan-2-one] | geringeren Stress-vermittelten Änderung der Nervosität | Beruhigungs- bzw. Entspannungsreaktion | –
5 | CCCCCCCC(C)=O [Nonan-2-one] | geringeren Stress-vermittelten Änderung der Nervosität | Beruhigungs- bzw. Entspannungsreaktion | –
6 | CCCCCCC(C)=O [Octan-2-one] | geringeren Stress-vermittelten Änderung der Nervosität | Beruhigungs- bzw. Entspannungsreaktion | –
7 | CCCCCCCC=O [Octanal] | geringeren Stress-vermittelten Änderung der Nervosität | Beruhigungs- bzw. Entspannungsreaktion | –
8 | CCCCCC1CCCC(=O)O1 (stereo not shown) [Tetrahydro-6-pentyl-2H-pyran-2-one] | geringeren Stress-vermittelten Änderung der Nervosität | Anstieg | Blutvolumenpuls Amplitude (Abbildung 1) (Probandinnen [2]): Anstieg; Änderung der Herzrate (Probandinnen [2]; Duftphase, Zeit 300 s, 0,025% in Propylenglykol): -2,51 bpm; Änderung der Herzrate (Probandinnen [2]; Duftphase, Zeit 315 s, 0,025% in Propylenglykol): -3,27 bpm; Änderung der Herzrate (Probandinnen [2]; Duftphase, Zeit 330 s, 0,025% in Propylenglykol): -2,71 bpm; Änderung der Herzrate (Probandinnen [2]; Duftphase, Zeit 435 s, 0,025% in Propylenglykol): -1,94 bpm; Änderung der Herzrate (Probandinnen [2]; Duftphase, Zeit 540 s, 0,025% in Propylenglykol): -2,91 bpm; Änderung der Herzrate (Probandinnen [2]; Duftphase, Zeit 585 s, 0,025% in Propylenglykol): -2,44 bpm; Änderung der Herzrate (Probandinnen [2]; Kontrollluft (before fragrance application), Zeit 30 s, 0,025% group): -1,26 bpm; Änderung der Herzrate (Probandinnen [2]; Kontrollluft (before fragrance application), Zeit 90 s, 0,025% group): -1,26 bpm; Änderung der Herzrate (Probandinnen [2]; Kontrollluft (before fragrance application), Zeit 135 s, 0,025% group): -1,65 bpm; Änderung der Herzrate (Probandinnen [2]; Kontrollluft (before fragrance application), Zeit 180 s, 0,025% group): -2,16 bpm; Änderung der Herzrate (Probandinnen [2]; Kontrollluft (before fragrance application), Zeit 225 s, 0,025% group): -0,63 bpm; Änderung der Herzrate (Probandinnen [2]; Kontrollluft (before fragrance application), Zeit 285 s, 0,025% group): -0,02 bpm; Herzrate (Probandinnen [2]; result in words, im Vergleich zur Placebokontrolle, after fragrance application): Senkung der Herzrate
